Laboratory results taken from PMC10714399, “Open Source Antibiotics: Simple Diarylimidazoles Are Potent against Methicillin-Resistant Staphylococcus aureus” (ACS Infectious Diseases, 2023).
Values after ≈ are worked out from the molar mass of the structure shown.

What was measured:
[1] = test system: Staphylococcus aureus ATCC 43300 MRSA; assay: CO-ADD antibacterial assay (growth inhibition, MIC), MRSA; type: cell-based; settings: read-out: MRSA MIC (CO-ADD)
Protocol: Hit Confirmation of active compounds by whole cell growth inhibition assays was conducted as an 8-point dose response to determine the Minimum Inhibitory Concentration (MIC), in duplicate (n=2). The inhibition of growth is measured against those microorganisms that […]
Included in the Hit Confirmation were 5 bacteria: Escherichia coli, Klebsiella pneumoniae, Acinetobacter baumannii, Pseudomonas aeruginosa and Staphylococcus aureus, and 2 fungi Candida albicans and Cryptococcus neoformans. […]
Assay Parameters Bacteria Fungi HEK293 Haemolysis […]
Duplicate (n=2) Duplicate (n=2) Duplicate (n=2) Duplicate (n=2)
QC Control MIC: Control MIC: Control CC50: Control HC10:
Non-Binding Non-Binding TC, 384-well Polypropylene
Plates Surface (NBS), Surface (NBS), black wall/clear 384-well and 384-well plate 384-well plate bottom polystyrene 384-
Cation-adjusted Yeast Nitrogen DMEM
Media Mueller Hinton Base supplemented 0.9% NaCl
Hit Confirmation outcomes are detailed in individual Project reports, personalised for each Project Submission for each CO-ADD user.
Please see your data sheet with file extension P0XXX_HC_data.xlsx, for example CO-ADD Project P0100, P0100_HC_data.xlsx
Study: HC_data ID: HC-Procedures & Materials
Date: Last updated June 2018 Confidential Page 3 of 11
(1 picture or pasted object on this page, not shown here)
Samples were provided by the collaborator and stored frozen at -20 °C. Samples were prepared in DMSO and water to a final testing concentration of 32 µg/mL or 20 µM (unless otherwise indicated in the data sheet) and serially diluted 1:2 fold for 8 times. Each sample concentration was prepared in 384-well plates, non-binding surface plate (NBS; Corning 3640) for each bacterial/fungal strain, tissue-culture treated (TC-treated; Corning 3712/3764) black for mammalian cell types and polypropylene 384-well (PP; Corning 3657) for haemolysis assays, all in duplicate (n=2), and keeping the final DMSO concentration to a maximum of 0.5%. All the sample preparation was done using liquid handling robots. […]
detailed in the Data sheet for the individual Project.
All bacteria were cultured in Cation-adjusted Mueller Hinton broth (CAMHB) at 37 °C overnight. A sample of each culture was then diluted 40-fold in fresh broth and incubated at 37 °C for 1.5-3 h. The resultant mid-log phase cultures were diluted (CFU/mL measured by OD600), then added to each well of the compound containing plates, giving a cell density of 5×10^5 CFU/mL and a total volume of 50 µL. All the plates were covered and incubated at 37 °C for 18 h without shaking.
Inhibition of bacterial growth was determined measuring absorbance at 600 nm (OD600), using a Tecan M1000 Pro monochromator plate reader. The percentage of growth inhibition was calculated for each well, using the negative control (media only) and positive control (bacteria without inhibitors) on the same plate as references.
The percentage of growth inhibition was calculated for each well, using the negative control (media only) and positive control (bacteria without inhibitors) on the same plate. The MIC […]
by an inhibition ≥ 80%. In addition, the maximal percentage of growth inhibition is reported as DMax, indicating any compounds with partial activity.
Date: Last updated June 2018 Confidential Page 5 of 11
Material Code Brand/Supplier Cat No.
Compound preparation plate, Polypropylene PP Corning 3364
Assay Plates – Antimicrobial
Non-binding surface NBS 384w Corning 3640
Assay Plates – Cytotoxicity
Tissue culture treated Black/Clear bottom 384w Corning 3712
Assay Plates - Haemolysis PP-Haem Corning 3657 […]
Growth media - bacteria CAMHB Bacto Laboratories 212322
Culture agar - fungi YPD Becton Dickinson 242720
Growth media - fungi YNB Becton Dickinson 233520
Resazurin Sigma-Aldrich R7017
Dulbecco's Modified Eagle Medium DMEM Life Technologies 11995-073
Foetal Bovine Serum FBS Bovogen FFBS-500
0.9% NaCl Saline Baxter AHF7124
Sample Name Sample ID MW Conc. Solvent Source […]

[2] = test system: S. aureus ATCC 25923 (methicillin-susceptible); assay: In vitro antibacterial activity, MIC (UCL), MSSA; type: cell-based, Staphylococcus aureus; settings: Staphylococcus aureus; read-out: MSSA MIC (UCL)
How it was run: (§1)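 Each organism was taken from overnight tryptone soya agar, suspended in PBS at A600 0.1, diluted 1:100 in isosensitest broth and added to serially diluted compound (32 to 0.03 μg/mL).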

[3] = test system: Staphylococcus aureus NCTC 13373 (mecA-positive; methicillin-resistant); assay: In vitro antibacterial activity, MIC (UCL School of Pharmacy assay), MRSA; type: cell-based; settings: Staphylococcus aureus, UCL; read-out: MRSA MIC (UCL)
How it was run: as §1

Row | SMILES | MIC [1] [µg/mL] | MIC [2] [µg/mL] | MIC [3] [µg/mL]
1 | c1ccc(-c2nc3ncccn3c2-c2ccc3c(c2)OCO3)nc1 [OSA_000815] | > 32 |  | 
2 | c1cncc(-c2nc3n(c2-c2ccc4c(c2)OCO4)CCC3)c1 [OSA_000816] | > 32 |  | 
3 | c1cc(-c2nc3n(c2-c2ccc4c(c2)OCO4)CCC3)ccn1 [OSA_000817] | > 32 |  | 
4 | c1ccc(-c2nc3n(c2-c2ccc4c(c2)OCO4)CCCC3)nc1 [OSA_000818] | 16 (≈ 50.1 µM) |  | 
5 | c1ccc(-c2nc3n(c2-c2ccc4c(c2)OCCO4)CCC3)nc1 [OSA_000819] | 16 (≈ 50.1 µM) |  | 

The next lines start with the values.

Row | MIC [1] [µg/mL] | MIC [2] [µg/mL] | MIC [3] [µg/mL] | SMILES
6 | 32 (≈ 99.6 µM) | > 32 | > 32 | COc1ccc(-c2c(-c3ccccn3)nc3n2CCC3)cc1OC [OSA_000820]
7 | 16 (≈ 54.9 µM) |  |  | COc1ccc(-c2c(-c3ccccn3)nc3n2CCC3)cc1 [OSA_000823]
8 | 4 (≈ 13 µM) |  |  | CSc1ccc(-c2c(-c3ccccn3)nc3n2CCC3)cc1 [OSA_000824]
9 | 16 (≈ 54.9 µM) |  |  | COc1cccc(-c2c(-c3ccccn3)nc3n2CCC3)c1 [OSA_000825]
